pIC50: −log10 of the molar value.
Test system: formation of advanced glycation end products (AGEs)
Test: Antiglycation activity (BSA-glucose, AGE fluorescence)
Assay type: biochemical
Conditions: for Antiglycation activity, M ± SEM: 24 h at 60 °C
Description: The glycation reaction was carried out in a phosphate buffer solution of 0.05 M, pH 7.4. Composition of the reaction medium: 0.36 M glucose solution and 1 mg/mL BSA (fraction V). The test compounds were dissolved in 99% DMSO (final concentration in the reaction medium ~3%). The activity of compound 1 was studied in the concentration range of 1000–0.1 μM, and the activity of aminoguanidine was determined at concentrations of 10,000–1000 μM. Control samples contained an equivalent volume of solvent. The samples were incubated for 24 h at 60 °C.
Data registration was carried out by the spectrofluorimetric method, determining AGE by specific fluorescence at excitation/emission wavelengths of 370/440 nm (spectrofluorimeter M 200 PRO, TECAN Austria GmbH, Grödig, Austria).
In order to exclude false positive results for compounds suppressing AGE fluorescence due to interference, the obtained data were logarithmically normalized according to Equation (4):Fly(log) = 10^(log10(Exp)−log10(Blank)) − 1(4) where Fly(log) is the normalized AGE fluorescence intensity, log10(Exp) and log10(blank) are the decimal logarithms of the actual fluorescence levels of glycated and corresponding non-glycated samples (both containing the test compound and controls).
The activity of other compounds (both non-fluorescent and fluorescent at the wavelengths used) was expressed by the Equation (5):Fly(lin) = Exp − Blank(5) where Fly(lin) is the fluorescence intensity of AGEs, Exp and blank are the actual fluorescence levels of glycated and corresponding non-glycated samples (both those containing the test compound and controls).
Determination of activity expressed as % suppression of fluorescence of AGE, was made according to the Equation (6):% = 100 − (Fly(Exp) × 100/Fly(Contr))(6) where Fly(Exp) and Fly(Contr) are the CPG fluorescence intensity of experimental and control samples, respectively (log-normalized or non-log-normalized).

CC(C)(C)c1cc(C(=O)N/N=C/c2ccccc2O)cc(C(C)(C)C)c1O [Compound 1, Di-tert-butyl-4-hydroxy-N′-(2-hydroxybenzylidene)-benzohydrazine] was tested, and the pIC50 was 5.55, the “Antiglycation activity, M ± SEM” value (concentration 0.3 µM) was −1.9 ± 1.4% and the “Antiglycation activity, M ± SEM” value (concentration 1 µM) was 0.6 ± 2.3%. The “Antiglycation activity, M ± SEM” value (concentration 3 µM) was 53.9 ± 2.5%, the “Antiglycation activity, M ± SEM” value (concentration 10 µM) was 60.1 ± 1.1% and the “Antiglycation activity, M ± SEM” value (concentration 30 µM) was 62.0 ± 0.7%. The “Antiglycation activity, M ± SEM” value (concentration 100 µM) was 61.6 ± 0.5%, the “Antiglycation activity, M ± SEM” value (concentration 300 µM) was 73.2 ± 1.9% and the “Antiglycation activity, M ± SEM” value (concentration 1000 µM) was 70.2 ± 8.0%.
